Experiments:
[1] = test system: Breast cancer (MDA-MB-468); test: NCI single dose SRB screen, MDA-MB-468; type: cell-based
Method in brief: (§1)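 The NCI 60-cell-line panel was screened at a single 10 µM dose with 48 h drug exposure. Cell growth and viability were measured by sulforhodamine B colorimetric assay, per the NCI Drug Evaluation Branch protocol.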

hCA II = target: T1, hCA II (Homo sapiens, UniProt P00918); test: stopped-flow CO2 hydrase assay, hCA II; type: biochemical; settings: stopped flow technique, mean from 3 different assays
T1 construct: made in house

hCA XII = target: T2, hCA XII (Homo sapiens, UniProt O43570); test: stopped-flow CO2 hydrase assay, hCA XII; type: biochemical; settings: stopped flow technique, mean from 3 different assays
T2 construct: made in house

leukemia (CCRF-CM) = test: anti-proliferative activity under hypoxic condition (MTT), CCRF-CM; type: cell-based
Description: (§2) All cells were incubated in hypoxic atmosphere (1% O2, 5% CO2, and 94%N2) and maintained at 37 °C. All procedures to determine compounds cytotoxicity were accomplished using MTT assay as reported,[59],[60].

[2] = test system: non-small cell lung cancer (HOP-92); test: NCI single dose SRB screen, HOP-92; type: cell-based; settings: 10 µM single dose
Description: (§3) Target compounds in series (A) and (B), were submitted to the National Cancer Institute (NCI) Developmental Therapeutic Program (www.dtp.nci.nih.gov), where they have been assessed, in vitro for their anticancer activity. Two series (A) and (B), were screened in a single dose (10 µM) versus full panel composed of 60 cancer cell lines, in accordance with protocol of drug evaluation branch, NCI, Bethesda. Sulforhodamine B (SRB) colorimetric assay was used to determine cell growth and viability,[40].
(§4) Protocol of Drug Evaluation Branch, NCI, Bethesda, was adopted in the antitumor assay. Assessment of cell growth and viability was carried out utilizing SRB assay and 48 h drug exposure protocol as previously reported,[40].

Leukemia (CCRF-CEM) = test: NCI single dose SRB screen, CCRF-CEM; type: cell-based; settings: normoxic condition (5% CO2, 95% air at 37 °C), NCI protocol
Description: as §3, §4

hCA I = target: T3, hCA I (Homo sapiens, UniProt P00915); test: stopped-flow CO2 hydrase assay, hCA I; type: biochemical; settings: stopped flow technique, mean from 3 different assays
T3 construct: made in house

Leukemia (SR) = test: NCI single dose SRB screen, SR; type: cell-based; settings: 48 h, 10^−5 M single dose, read-out: GI% Leukemia (SR)
Method in brief: as §1

Renal cancer (UO-31) = test: NCI single dose SRB screen, UO-31; type: cell-based; settings: Homo sapiens, UO-31, 48 h, 10^−5 M single dose, read-out: GI% Renal cancer (UO-31)
Method in brief: as §1

CNS cancer (SNB-75) = test: NCI single dose SRB screen, SNB-75; type: cell-based; settings: Homo sapiens, SNB-75, 48 h, 10^−5 M single dose, read-out: GI% CNS cancer (SNB-75)
Method in brief: as §1

[3] = test system: Breast cancer (MDA-MB-468); test: anti-proliferative activity under hypoxic condition (MTT), MDA-MB-468; type: cell-based
Description: as §2

[4] = hypoxic condition (1% O2, 5% CO2, and 94%N2 at 37 °C)

T2 sequence (O43570 25-354): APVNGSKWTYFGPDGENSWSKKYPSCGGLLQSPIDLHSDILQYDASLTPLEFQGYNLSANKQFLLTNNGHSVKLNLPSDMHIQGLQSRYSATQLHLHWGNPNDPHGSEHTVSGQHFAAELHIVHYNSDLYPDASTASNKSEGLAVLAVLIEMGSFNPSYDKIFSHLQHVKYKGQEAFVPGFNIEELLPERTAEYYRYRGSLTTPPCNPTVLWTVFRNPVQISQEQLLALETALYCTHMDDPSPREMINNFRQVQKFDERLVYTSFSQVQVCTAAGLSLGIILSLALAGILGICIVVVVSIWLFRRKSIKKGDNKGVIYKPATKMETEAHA
T3 sequence (P00915 whole entry): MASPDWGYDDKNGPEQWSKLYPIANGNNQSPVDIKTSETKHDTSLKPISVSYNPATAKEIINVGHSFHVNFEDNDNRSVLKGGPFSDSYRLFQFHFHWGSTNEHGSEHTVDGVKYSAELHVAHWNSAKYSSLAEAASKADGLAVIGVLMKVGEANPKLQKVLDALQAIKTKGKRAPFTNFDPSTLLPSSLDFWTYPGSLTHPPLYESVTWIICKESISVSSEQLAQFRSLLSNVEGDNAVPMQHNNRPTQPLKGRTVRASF

N#C/C(=C\c1cccc(F)c1)c1nc(N)nc(Nc2ccc(S(N)(=O)=O)cc2)n1 [Compound 12i, 4-({4-Amino-6-[(1E)-1-cyano-2-(3-fluorophenyl)eth-1-en-1-yl]-1,3,5-triazin-2-yl}amino)benzene-1-sulfonamide]
inhibition at 10 µM ([1]; Homo sapiens, MDA-MB-468, 48 h, 10^−5 M single dose, 48 h, SRB, read-out: GI% Breast cancer (MDA-MB-468)): 17%
GI% Normoxia MDA-MB-468 ([1]; normoxic condition (5% CO2, 95% air at 37 °C), NCI protocol): 16.58%
Ki (hCA II): 253 nM
Ki (hCA XII): 182 nM
GI% Hypoxia CCRF-CM (leukemia (CCRF-CM); [4]): 50.14%
IC50 (leukemia (CCRF-CM); hypoxic conditions (1%O2, 5% CO2 and 94% N2), mean ± S.D. of three experiments): 9830 ± 520 nM
GI% non-small cell lung cancer (HOP-92) [2]: 16%
GI% Normoxia CCRF-CM (Leukemia (CCRF-CEM)): 0.76%
Ki (hCA I): 480 nM
inhibition at 10 µM (Leukemia (SR)): ≤ 10%
inhibition at 10 µM (Renal cancer (UO-31)): 20%
inhibition at 10 µM (CNS cancer (SNB-75)): ≤ 10%
IC50 ([3]; Homo sapiens, MDA-MB-468, hypoxic conditions (1%O2, 5% CO2 and 94% N2), mean ± S.D. of three experiments): 1480 ± 80 nM
GI% Hypoxia MDA-MB-468 [3, 4]: 64.75%

Source: paper PMC9537541, “Synthesis and anticancer activity of new benzensulfonamides incorporating s-triazines as cyclic linkers for inhibition of carbonic anhydrase IX” (Scientific Reports, 2022)
